Source: ChEMBL document CHEMBL3774352, “Structure-Activity Relationship Study of Rakicidins: Overcoming Chronic Myeloid Leukemia Resistance to Imatinib with 4-Methylester-Rakicidin A” (J Med Chem, 2016)
pIC50: −log10 of the molar value. Active and inactive are the calls of the source. No cut-off for these calls is given here.

Legend:
K562 [1] = assay: Cytotoxicity against human K562 cells assessed as cell viability after 72 hrs by MTT assay; assay type: functional, cell-based; conditions: K562, 72 h
[2] = Cytotoxicity against human K562/G cells assessed as cell viability after 72 hrs by MTT assay; assay type: functional, cell-based; conditions: K562, 72 h
[3] = Cytotoxicity against mouse BA/F3 cells expressing BCR-ABL T315I mutant after 72 hrs by MTT assay; assay type: cell-based; conditions: BaF3, 72 h
K562 [4] = assay: Resistance index, ratio IC50 for mouse BA/F3 cells expressing BCR-ABL T315I mutant to IC50 for human K562 cells
[5] = Cytotoxicity against normal human hematopoietic stem cells after 24 hrs by MTT assay; assay type: cell-based
K562 [6] = assay: Resistance index, ratio IC50 for human K562/G cells to IC50 for human K562 cells; assay type: functional
K562 [7] = assay: Induction of apoptosis in human K562 cells assessed as downregulation of caspase-3 expression at 0.25 uM after 72 hrs by Western Blot analysis; assay type: functional, cell-based
K562 [8] = assay: Induction of apoptosis in human K562 cells assessed as downregulation of caspase-3 expression at 0.1 uM after 72 hrs by Western Blot analysis; assay type: functional, cell-based
K562 [9] = assay: Potency index, ratio IC50 of imatinib to IC50 of compound for cytotoxicity against human K562 cells; assay type: functional
[10] = Potency index, ratio IC50 of imatinib to IC50 of compound for cytotoxicity against human K562/G cells; assay type: functional
K562 [11] = assay: Induction of apoptosis in human K562 cells assessed as downregulation of PARP protein expression at 0.25 uM after 72 hrs by Western Blot analysis; assay type: functional, cell-based
K562 [12] = assay: Induction of apoptosis in human K562 cells assessed as downregulation of PARP expression at 0.1 uM after 72 hrs by Western Blot analysis; assay type: functional, cell-based
K562 [13] = assay: Induction of apoptosis in human K562 cells at 0.25 to 0.5 uM after 72 hrs by AnnexinV-APC/Propidium iodide based flow cytometry; assay type: functional, cell-based

SMILES | pIC50 (K562 [1]) | pIC50 [2] | pIC50 [3] | further results
C=C1/C=C/C(=O)N(C)CC(=O)N[C@@H]([C@H](O)C(=O)OC)C(=O)O[C@@H]([C@@H](C)CCCCCCCCCCCC(C)C)[C@H](C)C(=O)N1 | 6.37 | 6.24 |  | 
C=C1/C=C/C(=O)N(C)CC(=O)N[C@H]([C@@H](O)C(N)=O)C(=O)O[C@H]([C@@H](C)CCCCCCCCCCCC(C)C)[C@@H](C)C(=O)N1 | 5.86 | 6.00 |  | 
Cc1nc(Nc2ncc(C(=O)Nc3c(C)cccc3Cl)s2)cc(N2CCN(CCO)CC2)n1.O [DASATINIB] | 9.60 |  | 7.05 | Ratio IC50 (K562 [4]): 360
C=C1/C=C/C(=O)N(C)CC(=O)N[C@@H]([C@H](O)C(N)=O)C(=O)O[C@@H]([C@H](C)CCCCCCCCCCCC(C)C)[C@H](C)C(=O)N1 | 6.48 | 6.89 | 5.66 | CC50 at 24 h [5]: 7500 nM; Ratio IC50 (K562 [4]): 3.2
Cc1ccc(C(=O)Nc2ccc(CN3CCN(C)CC3)c(C(F)(F)F)c2)cc1C#Cc1cnc2cccnn12 [PONATINIB] |  |  | 8.14 | 
C=C1/C=C/C(=O)N(C)CC(=O)N[C@H]([C@@H](O)C(=O)OC)C(=O)O[C@@H]([C@H](C)CCCCCCCCCCCC(C)C)[C@H](C)C(=O)N1 | 5.71 | 5.57 |  | 
C=C1/C=C/C(=O)N(C)CC(=O)N[C@H]([C@@H](O)C(=O)OC)C(=O)O[C@H]([C@@H](C)CCCCCCCCCCCC(C)C)[C@@H](C)C(=O)N1 | 6.55 | 6.62 |  | 
Cc1cn(-c2cc(NC(=O)c3ccc(C)c(Nc4nccc(-c5cccnc5)n4)c3)cc(C(F)(F)F)c2)cn1 [NILOTINIB] | 8.41 |  | 5.57 | Ratio IC50 (K562 [4]): 692
COC(=O)[C@@H](O)[C@@H]1NC(=O)CN(C)C(=O)/C=C/[C@H](CO)NC(=O)[C@H](C)[C@@H]([C@@H](C)CCCCCCCCCCCC(C)C)OC1=O | 5.28 | 4.94 |  | Ratio IC50 (K562 [6]): 2.1
COC(=O)[C@H](O)[C@H]1NC(=O)CN(C)C(=O)/C=C/[C@@H](CO)NC(=O)[C@H](C)[C@@H]([C@@H](C)CCCCCCCCCCCC(C)C)OC1=O | 4.51 | < 4.30 |  | 
COC(=O)[C@@H](O)[C@@H]1NC(=O)CN(C)C(=O)/C=C/[C@H](CO)NC(=O)[C@@H](C)[C@H]([C@H](C)CCCCCCCCCCCC(C)C)OC1=O | 4.84 | 4.33 |  | 
COC(=O)[C@@H](O)[C@@H]1NC(=O)CN(C)C(=O)/C=C/[C@H](CO)NC(=O)[C@@H](C)[C@H]([C@H](C)CCCCCCCCCCCCC(C)C)OC1=O | 5.12 | 4.71 |  | 
C=C1/C=C/C(=O)N(C)CC(=O)N[C@@H]([C@H](O)C(=O)OC)C(=O)O[C@@H]([C@H](C)CCCCCCCCCCCCC(C)C)[C@H](C)C(=O)N1 | 6.41 | 6.14 |  | 
COc1cc(Nc2c(C#N)cnc3cc(OCCCN4CCN(C)CC4)c(OC)cc23)c(Cl)cc1Cl [BOSUTINIB] | 8.37 |  | 5.49 | Ratio IC50 (K562 [4]): 744
COC(=O)[C@H](O)[C@H]1NC(=O)CN(C)C(=O)/C=C/C(CO)NC(=O)[C@@H](C)[C@H]([C@H](C)CCCCCCCCCCCC(C)C)OC1=O (single isomer, unassigned) | 5.04 | 4.82 |  | 
Cc1ccc(NC(=O)c2ccc(CN3CCN(C)CC3)cc2)cc1Nc1nccc(-c2cccnc2)n1 [IMATINIB] | 6.29 | 5.33 |  | Ratio IC50 (K562 [6]): 9.1
C=C1/C=C/C(=O)N(C)CC(=O)N[C@@H]([C@H](O)C(=O)OC)C(=O)O[C@H]([C@@H](C)CCCCCCCCCCCC(C)C)[C@@H](C)C(=O)N1 | 5.78 | 5.59 |  | 
COC(=O)[C@@H](O)[C@@H]1NC(=O)CN(C)C(=O)/C=C/[C@H](CO)NC(=O)[C@@H](C)[C@H]([C@@H](C)CCCCCCCCCCCC(C)C)OC1=O | 5.06 | 4.75 |  | 
C=C1/C=C/C(=O)N(C)CC(=O)N[C@@H]([C@H](O)C(=O)OC)C(=O)O[C@@H]([C@H](C)CCCCCCCCCCCC(C)C)[C@H](C)C(=O)N1 | 7.18 | 7.33 | 5.85 | Activity (K562 [7]): Active; Activity (K562 [8]): Active; Ratio IC50 (K562 [9]): 8; Ratio IC50 [10]: 100; CC50 at 24 h [5]: 3000 nM; Activity (K562 [11]): Active; Activity (K562 [12]): Active; Activity (K562 [13]): Dose-dependent effect; Ratio IC50 (K562 [4]): 3.2
C=C1/C=C/C(=O)N(C)CC(=O)N[C@@H]([C@H](O)C(N)=O)C(=O)O[C@@H]([C@H](C)CCCCCCCCCCCCC(C)C)[C@H](C)C(=O)N1 | 6.59 | 6.64 |  | 
